Laboratory results from US20030068802A1, “Use of streptococcus pneumoniae acyl carrier protein synthase crystal structure in diagnostics, antimicrobial drug design, and biosensors” (priority 2000, published 2003).

Key:
[1] = target: T1, purified AcpS of S. pneumoniae (Streptococcus pneumoniae, UniProt P0A2W7); assay: HPLC-based AcpS enzyme assay (conversion of apo-ACP to holo-ACP); type: biochemical; conditions: for Ki: 3.7 nM AcpS; for relative activity as substrate of AcpS: CoA = 100, 1.5 μM apo-ACP, 20 μM CoA or CoA derivative, 19 nM AcpS
T1 construct: made in house; host or cells: E. coli BL21 (pLysS)/pRBP-19 (pET-11a)
T1 sequence (P0A2W7 1-120): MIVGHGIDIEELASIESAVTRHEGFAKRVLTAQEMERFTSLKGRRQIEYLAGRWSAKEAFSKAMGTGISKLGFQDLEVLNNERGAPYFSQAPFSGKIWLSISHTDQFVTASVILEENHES
Method: (§1) Unless otherwise indicated, reaction mixtures contain 50 mM Tris-HCl, pH 7.0, 10 mM MgCl2, 2.5-50 μM CoA, 0.25-6.0 μM purified apo-ACP of S. pneumoniae, and 3.7 nM purified AcpS of S. pneumoniae, and are incubated at 37° C. for 9 min. Reactions are stopped by the addition of 50 mM EDTA. The formation of holo-ACP is determined by an HPLC or a trichloroacetic acid (TCA) precipitation method (see below). An HPLC-based assay is adapted from the method described previously (Lambalot and Walsh, 1997). This assay monitors the conversion of apo-ACP to holo-ACP. Reaction mixtures (100 μl each) are injected into an analytical HPLC column (Vydac protein C4 reverse-phase; P. J. Cobert Associates, Inc., St. Louis, Mo.) equilibrated with 45% acetonitrile in 0.1% trifluoroacetic acid. The column is eluted with an 8 ml linear gradient of 45-80% acetonitrile. The column elution profiles are monitored at 220 nm. Under these conditions, holo-ACP migrates faster than apo-ACP. The amount of holo-ACP formed is estimated by comparing the peak area of the holo-ACP formed with those of both apo- and holo-ACP.
(§2) To examine the substrate specificity of AcpS, a variety of CoA derivatives (acetyl-CoA, malonyl-CoA, acetoacetyl-CoA, desulfo-CoA, and dephospho-CoA) are tested. All reaction mixtures contain 1.5 μM apo-ACP, 20 μM CoA or CoA derivative, and 19 nM AcpS, and the formation of holo-ACP is determined by the HPLC method.
For the determination of Km and Vmax (kcat) of AcpS for apo-ACP, reaction mixtures (in quadruplicate) contain 20 μM CoA, 0.25 to 100 μM apo-ACP, and 3.7 nM. AcpS. The formation of holo-ACP is measured by the HPLC method or the TCA precipitation method. To determine Km for CoA, the reaction conditions are the same as those described above except that the concentration of apo-ACP is 2.0 μM, and the concentrations of CoA were 5 to 600 μM. […]
To evaluate the inhibition of AcpS activity by 3′,5′-ADP with respect to CoA, reaction mixtures contain 1-60 μM 3′,5′-ADP, 2.5-60 μM CoA, 1.0 μM apo-ACP, and 3.7 nM AcpS. To evaluate the inhibition of AcpS activity by 3′,5′-ADP with respect to apo-ACP, reaction mixtures contain 1-60 μM 3′,5′-ADP, 0.5-6.0 μM apo-ACP, 20 μM CoA, and 3.7 nM AcpS. The formation of holo-ACP is analyzed by the HPLC method.

[2] = target: T1, purified AcpS of S. pneumoniae; assay: Substrate binding to AcpS by gel filtration column chromatography, mass spectrometry and filter binding; conditions: 27 μM AcpS, 10 mM MgCl2, 100 μM apo-ACP or 50 μM CoA, room temperature 30 min
Method: To determine whether AcpS binds directly to apo-ACP or CoA in the absence of the other substrate, a purified AcpS preparation (27 μM) is first mixed with 10 mM MgCl2, and then either 100 μM apo-ACP or 50 μM CoA. The mixture is incubated at room temperature for 30 min and subjected to gel filtration column chromatography (S-75 Superdex) under the conditions described above. The fractions containing the AcpS-apo-ACP complex and unbound apo-ACP are analyzed by SDS-PAGE (16% tricine gels), SYPRO Orange staining, and mass spectrometry.
The order of substrate binding to AcpS can be analyzed by determining the binding of CoA and apo-ACP to purified AcpS by gel filtration column chromatography, mass spectrometry, or filter binding assays. If CoA binds to AcpS first and forms an enzyme-substrate complex that is required for the next reaction with apo-ACP, then a stable enzyme-substrate complex should be detectable. […]
Whether apo-ACP binds to AcpS in the absence of CoA, a mixture of AcpS and apo-ACP (apo-ACP/AcpS=5:1) can be subjected to gel filtration column chromatography and analysis of the column fractions by SDS-PAGE. […] Consistent with the formation of the AcpS-apo-ACP complex, the presence of apo-ACP is also detected in the fractions containing purified AcpS (FIG. 2B). […]

[3] = substrate: CC(C)(COP(=O)(O)OP(=O)(O)OC[C@H]1O[C@@H](n2cnc3c(N)ncnc32)[C@H](O)[C@@H]1OP(=O)(O)O)[C@@H](O)C(=O)NCCC(=O)NCCS; assay: TCA precipitation AcpS assay ([3H]CoA incorporation into apo-ACP); type: biochemical, Streptococcus pneumoniae; conditions: other: TCA precipitation method
Method: AcpS activity is also assayed by using a TCA precipitation method (Lambalot and Walsh, 1995). This method measures the incorporation of the 3H-labeled 4′-phospho-pantotheine group from [^3H]CoA into apo-ACP. Reaction conditions are the same as those described for the HPLC assay, except that [^3H]COA (specific activity, 1.5 Ci/mmol, NEN Life Science Products, Boston, Mass.) is used alone or in combination with CoA. Reactions are stopped by the addition of 0.9 ml of cold 10% TCA followed by 37 μg of bovine serum albumin (BSA). Precipitated protein is collected by centrifugation (a microfuge at 14,000 rpm) for 5 min and washed twice with ice-cold 10% TCA. The protein collected is resuspended in 150 μl of 1M Tris base and 0.1% Triton X-100. The resulting suspension (100 μl) is mixed with 2.5 ml of Ready Protein+scintillation fluid (Beckman, Fullerton, Calif.), and counted using an LS 60001C scintillation counter (Beckman).
For the determination of Km and Vmax (kcat) of AcpS for apo-ACP, reaction mixtures (in quadruplicate) contain 20 μM CoA, 0.25 to 100 μM apo-ACP, and 3.7 nM. AcpS. The formation of holo-ACP is measured by the HPLC method or the TCA precipitation method. To determine Km for CoA, the reaction conditions are the same as those described above except that the concentration of apo-ACP is 2.0 μM, and the concentrations of CoA were 5 to 600 μM.

[4] = substrate: CC(C)(COP(=O)(O)OP(=O)(O)OC[C@H]1O[C@@H](n2cnc3c(N)ncnc32)[C@H](O)[C@@H]1OP(=O)(O)O)[C@@H](O)C(=O)NCCC(=O)NCCS; assay: HPLC-based AcpS enzyme assay (conversion of apo-ACP to holo-ACP); type: biochemical, Streptococcus pneumoniae; conditions: other: fixed apo-ACP 2 μM, various CoA, HPLC method; pH 7.0; 37.0 °C
Method: as §1, with “The amount of holo-ACP formed is estimated by comparing the peak area of the holo-ACP formed with those of both apo- and holo-ACP.” left out
as §2, with “method. […]” for “method.”

[5] = target: Streptococcus pneumoniae apo-acyl carrier protein (apo-ACP)

For `Nc1ncnc2c1ncn2[C@@H]1O[C@H](COP(=O)(O)O)[C@@H](OP(=O)(O)O)[C@H]1O` [3′,5′-ADP, 3′,5′-adenosine diphosphate], the Ki ([1]; inhibition of AcpS activity with respect to CoA, various CoA concentrations, fixed apo-ACP 1.0 μM, Dixon plot FIG. 7C) was 6 µM, the Ki ([1]; inhibition of AcpS activity with respect to apo-ACP, various apo-ACP concentrations, fixed CoA 20 μM, Dixon plot FIG. 7D) was 2.5 µM and the “pattern of inhibition with respect to CoA (double reciprocal plots)” value ([1]; various CoA, fixed apo-ACP) was “simple competitive pattern”. The “pattern of inhibition with respect to apo-ACP (double reciprocal plots)” value ([1]; various apo-ACP, fixed CoA) was “linear-mixed pattern”.

For `CC(C)(COP(=O)(O)OP(=O)(O)OC[C@H]1O[C@@H](n2cnc3c(N)ncnc32)[C@H](O)[C@@H]1O)[C@@H](O)C(=O)NCCC(=O)NCCS` [dephospho-CoA], the “relative activity as substrate of AcpS” value [1] was 0.

With `CC(C)(COP(=O)(O)OP(=O)(O)OC[C@H]1O[C@@H](n2cnc3c(N)ncnc32)[C@H](O)[C@@H]1OP(=O)(O)O)[C@@H](O)C(=O)NCCC(=O)NCCS` [CoA, Coenzyme A] the “binding to AcpS in the absence of the other substrate” value [2] was “does not appear to bind” and the “relative activity as substrate of AcpS” value [1] was 100.

With `CCNC(=O)CCNC(=O)[C@H](O)C(C)(C)COP(=O)(O)OP(=O)(O)OC[C@H]1O[C@@H](n2cnc3c(N)ncnc32)[C@H](O)[C@@H]1OP(=O)(O)O` [desulfo-CoA] the “relative activity as substrate of AcpS” value [1] was 76.

`CC(=O)SCCNC(=O)CCNC(=O)[C@H](O)C(C)(C)COP(=O)(O)OP(=O)(O)OC[C@H]1O[C@@H](n2cnc3c(N)ncnc32)[C@H](O)[C@@H]1OP(=O)(O)O` [acetyl-CoA] was tested, and the “relative activity as substrate of AcpS” value [1] was 91.

In the case of `CC(=O)CC(=O)SCCNC(=O)CCNC(=O)[C@H](O)C(C)(C)COP(=O)(O)OP(=O)(O)OC[C@H]1O[C@@H](n2cnc3c(N)ncnc32)[C@H](O)[C@@H]1OP(=O)(O)O` [acetoacetyl-CoA], the “relative activity as substrate of AcpS” value [1] is reported as 65.

With `CC(C)(COP(=O)(O)OP(=O)(O)OC[C@H]1O[C@@H](n2cnc3c(N)ncnc32)[C@H](O)[C@@H]1OP(=O)(O)O)[C@@H](O)C(=O)NCCC(=O)NCCSC(=O)CC(=O)O` [malonyl-CoA] the “relative activity as substrate of AcpS” value [1] was 12.

B1: purified AcpS of S. pneumoniae (Streptococcus pneumoniae R6) (protein)
chain: T1 sequence (P0A2W7 1-120)
notes: made in house; host or cells: E. coli BL21 (pLysS)/pRBP-19 (pET-11a)
In the case of B1, the Km [3] is reported as 7.1 ± 0.4 µM, the Km [4] is reported as 11.5 ± 0.9 µM and the “Km (for apo-ACP), HPLC assay of holo-ACP formation, high apo-ACP concentrations” value [5] is reported as 109 ± 6.8 µM. The Km (for apo-ACP), HPLC assay of holo-ACP formation, low apo-ACP concentrations [5] was 0.5 µM, the apparent Km for apo-ACP, TCA precipitation assay with [3H]CoA [5] was 1.3 µM and the “fold decrease of affinity (Km) at high versus low apo-ACP concentrations” value [5] was “approximately 200-fold”.
